Reference: patent US20130296316A1, “Antiparasitic Agents Based On mTOR Inhibitors” (priority 2010, published 2013)
Where two headings read alike, the source gives them in different places.

Tests used:
[1] = test system: L. donovani axenic amastigotes; test: Potency assessment against Leishmania donovani axenic amastigotes (growth, cell counting); type: cell-based; details: for EC50 / IC50: Leishmania donovani; for EC50: axenic amastigotes, average of three replicates, read-out: Effective concentration (EC50) L. donovani axenic amastigotes; for activity against L. donovani axenic amastigotes in words: highest concentration tested; for IC50: Table 2B, read-out: L. donovani Axenic Amastigote IC50, growth inhibition
[2] = test system: T. brucei brucei Lister 427; test: Potency assessment against T. brucei brucei Lister 427 bloodstream form (AlamarBlue, 72 h); type: cell-based, Trypanosoma brucei brucei; details: Trypanosoma brucei
[3] = test system: L. major promastigotes; test: Potency assessment against Leishmania major promastigotes (growth, cell counting); type: cell-based; details: for EC50 / IC50: Leishmania major; for EC50: promastigotes, average of three replicates, read-out: Effective concentration (EC50) L. major; for activity against L. major promastigotes in words: highest concentration tested; for IC50: Table 2B, read-out: L. major Promastigote IC50, growth inhibition
[4] = test system: T. cruzi trypomastigotes; test: T. cruzi intracellular replication in NIH/3T3 host cells (β-galactosidase, CPRG); type: cell-based, Trypanosoma cruzi; details: Trypanosoma cruzi; for EC50: NIH3T3, 96 h, trypomastigotes with 3T3 host cells, four days, three replicates within ±10.2%, read-out: Effective concentration (EC50) T. cruzi; for IC50: NIH3T3, Table 2B, read-out: T. Cruzi IC50, growth inhibition
[5] = test system: L. donovani promastigotes; test: Potency assessment against Leishmania donovani promastigotes (growth, cell counting); type: cell-based; details: Leishmania donovani; for EC50: promastigotes, average of three replicates, read-out: Effective concentration (EC50) L. donovani promastigotes; for IC50: Table 2B, read-out: L. donovani Promastigote IC50, growth inhibition
[6] = molecular target: PI3K p110α (Homo sapiens, UniProt P42336); details: human enzyme, Table 1; cited from earlier work
Chain of PI3K p110α (P42336 whole entry): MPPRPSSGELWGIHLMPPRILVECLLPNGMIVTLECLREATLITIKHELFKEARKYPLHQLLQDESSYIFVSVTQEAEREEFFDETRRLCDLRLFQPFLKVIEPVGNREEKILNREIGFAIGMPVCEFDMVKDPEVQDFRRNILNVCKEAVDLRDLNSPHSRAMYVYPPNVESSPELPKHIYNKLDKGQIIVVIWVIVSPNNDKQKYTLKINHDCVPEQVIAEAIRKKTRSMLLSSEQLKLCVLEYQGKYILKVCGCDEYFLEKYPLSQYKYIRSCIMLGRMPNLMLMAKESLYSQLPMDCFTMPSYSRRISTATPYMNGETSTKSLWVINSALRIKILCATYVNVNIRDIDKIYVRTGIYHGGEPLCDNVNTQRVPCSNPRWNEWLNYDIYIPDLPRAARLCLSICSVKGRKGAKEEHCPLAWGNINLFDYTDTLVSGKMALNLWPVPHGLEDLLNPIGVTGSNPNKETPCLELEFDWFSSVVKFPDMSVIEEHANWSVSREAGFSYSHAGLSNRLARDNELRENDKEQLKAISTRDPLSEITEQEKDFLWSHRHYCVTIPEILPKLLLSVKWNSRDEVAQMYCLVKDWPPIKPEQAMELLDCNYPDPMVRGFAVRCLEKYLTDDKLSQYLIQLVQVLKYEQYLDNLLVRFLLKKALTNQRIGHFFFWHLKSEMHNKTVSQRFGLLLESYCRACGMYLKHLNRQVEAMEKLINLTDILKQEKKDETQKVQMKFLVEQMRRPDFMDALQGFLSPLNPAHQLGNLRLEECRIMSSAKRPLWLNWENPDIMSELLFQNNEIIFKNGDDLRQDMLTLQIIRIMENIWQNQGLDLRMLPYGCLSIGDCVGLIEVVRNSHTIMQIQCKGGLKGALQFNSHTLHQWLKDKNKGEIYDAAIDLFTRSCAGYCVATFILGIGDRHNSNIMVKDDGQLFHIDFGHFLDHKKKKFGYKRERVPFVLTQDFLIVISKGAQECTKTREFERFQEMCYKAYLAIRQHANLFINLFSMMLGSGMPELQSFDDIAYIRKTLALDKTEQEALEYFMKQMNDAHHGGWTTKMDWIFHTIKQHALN
Chain of PI3K p110α (P27986 whole entry partner): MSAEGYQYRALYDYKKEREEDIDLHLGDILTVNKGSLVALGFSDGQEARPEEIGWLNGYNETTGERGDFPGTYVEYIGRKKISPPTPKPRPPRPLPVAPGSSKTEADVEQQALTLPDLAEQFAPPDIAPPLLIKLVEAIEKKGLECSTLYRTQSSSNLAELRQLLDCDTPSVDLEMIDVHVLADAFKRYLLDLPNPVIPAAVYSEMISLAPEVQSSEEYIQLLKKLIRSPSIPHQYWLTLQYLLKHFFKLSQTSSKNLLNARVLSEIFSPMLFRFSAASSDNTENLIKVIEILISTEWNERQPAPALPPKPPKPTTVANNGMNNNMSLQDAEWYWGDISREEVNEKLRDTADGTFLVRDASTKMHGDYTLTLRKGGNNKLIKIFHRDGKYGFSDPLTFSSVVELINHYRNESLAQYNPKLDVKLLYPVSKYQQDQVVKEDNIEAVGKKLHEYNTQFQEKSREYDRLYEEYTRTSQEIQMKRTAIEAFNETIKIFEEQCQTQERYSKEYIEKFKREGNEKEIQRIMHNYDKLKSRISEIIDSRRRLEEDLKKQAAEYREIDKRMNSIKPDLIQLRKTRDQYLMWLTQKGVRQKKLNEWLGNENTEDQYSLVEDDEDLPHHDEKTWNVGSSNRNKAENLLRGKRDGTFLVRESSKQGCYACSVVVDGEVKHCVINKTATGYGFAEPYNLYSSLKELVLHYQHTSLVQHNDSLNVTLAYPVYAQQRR

[7] = test system: L. major promastigotes; test: Cell size and DNA content analysis in Leishmania (flow cytometry); type: cell-based, Leishmania major; details: overnight; PI-103 4 μM, WYE-354 25 μM, NVP-BEZ235 0.5 μM (EC60-EC90)
Description: L. major log phase promastigotes were inoculated at a concentration of 10^6 cells/ml into media with compounds as indicated, and incubated overnight with varying drug concentrations to assess cell size and DNA content. For cell size, forward scatter of live promastigotes was measured by a FACS flow cytometer (Becton Dickinson), utilizing dye exclusion with 5 μg/ml propidium iodide (PI) to gate for live cells. DNA content was determined by flow cytometry using fixed and permeabilized L. major stained with PI as previously described, but reducing the incubation time with PI and RNase A from 1 hour to 30 minutes. Histogram analysis was performed using CellQuest 3.1 software (BD Bioscience).

[8] = test system: Leishmania; test: Leishmania growth inhibition summarised across both species and stages; type: cell-based; details: range over L. major and L. donovani, promastigotes and amastigotes
[9] = test system: T. b. rhodesiense; test: Potency assessment against T. b. rhodesiense EATRO3 bloodstream form (AlamarBlue, 72 h); type: cell-based, Trypanosoma brucei rhodesiense; details: Trypanosoma brucei, RHODESIENSE; for IC50: Table 2B, read-out: T. brucei rhod IC50, growth inhibition
[10] = test system: T. brucei brucei Lister 427 bloodstream cells; test: Morphological and cell cycle alterations in T. brucei (flow cytometry); type: cell-based, Trypanosoma brucei brucei; details: 16 h, WYE-354 2 μM; for effect on cellular DNA content / cell cycle, T. b. brucei: PI-103 1 μM, Pp242 2 μM, NVP-BEZ235 100 nM
Description: Flow cytometry was used to assess cell size and DNA content, to reveal a G1 arrest and inhibition of protein synthesis or G2 arrest and multinucleated cells. […]. After permeabilization with […], saponin (0.5 mg/mL final concentration), the culture was RNAse treated for 30 minutes (10 μg/mL final concentration) and stained with 20 μg/mL propidium iodide immediately before its acquisition in a FACscan cytometer. Cells incubated with equivalent concentration of drug solvent (DMSO) were included in each experiment as control population.

[11] = molecular target: mTOR (Homo sapiens, UniProt P42345); details: cited from earlier work
[12] = test system: human cells; details: literature, Table 1; read-out: Inhibition of Cell Growth EC50; cited from earlier work
[13] = bloodstream form, average of three replicates, read-out: Effective concentration (EC50) T. b. brucei
[14] = bloodstream form, average of three replicates, read-out: Effective concentration (EC50) T. b. rhodesiense

Row | Structure (SMILES) | EC50 [1] | EC50 [2, 13] | EC50 [3] | EC50 [4] | IC50 [1] | IC50 [3] | IC50 [4] | further results
1 | O=c1cc(N2CCNCC2)oc2c(-c3ccccc3)cccc12 [LY303511, 2-piperazinyl-8-phenyl-4H-1-benzopyran-4-one] | > 5 µM | > 2 µM | > 25 µM | > 10 µM |  |  |  | activity against L. donovani axenic amastigotes in words [1]: inactive; activity against L. major promastigotes in words [3]: inactive
2 | O=c1cc(N2CCOCC2)oc2c(-c3ccccc3)cccc12 [LY294002, 2-(4-morpholinyl)-8-phenyl-4H-1-benzopyran-4-one] | > 5 µM | > 2 µM | > 25 µM | > 50 µM |  |  |  | activity against L. donovani axenic amastigotes in words [1]: inactive; activity against L. major promastigotes in words [3]: inactive
3 | COC(=O)Nc1ccc(-c2nc(N3CCOCC3)c3cnn(C4CCN(C(=O)OC)CC4)c3n2)cc1 [WYE-354] | 6.1 ± 1.73 µM | 0.58 ± 0.26 µM | 4.1 ± 0.3 µM | > 10 µM |  |  |  | EC50 [5]: 5.95 ± 0.84 µM; IC50 [6]: 1 µM; effect on cell size and DNA content, L. major promastigotes [7]: G1 arrest and a decrease in cell size; EC50 ([8]; read-out: activity against Leishmania across both species and stages): 4 to 6 µM; EC50 [9, 14]: 0.78 ± 0.08 µM; effect on cellular DNA content / cell cycle, T. b. brucei [10]: no significant variations in cell cycle; effect on cell size, T. b. brucei [10]: small but noticeable reduction in cell size; IC50 ([11]; human enzyme, Table 1): 0.004 µM; mTOR IC50 in words ([11]; mammalian cells / literature): low nanomolar; EC50 [12]: 0.03 µM
4 | CC(C)(C)OC(=O)Nc1ccc(-c2nc(N3CCOCC3)c3cnn(C4CCN(Cc5ccccc5)CC4)c3n2)cc1 [NEU-00000234] |  |  |  |  | 6.9 µM | 5.49 µM |  | IC50 [5]: 6.34 µM; IC50 [9]: 2.19 µM
5 | CCOCCNc1nc(-c2cccc(O)c2)nc2c1oc1ncccc12 [NEU-0000362] |  |  |  |  |  |  | > 50 µM | IC50 [9]: > 1 µM
6 | c1ccc(-c2nc(N3CCOCC3)c3oc4ncccc4c3n2)cc1 [NEU-0000290] |  |  |  |  | > 20 µM | > 20 µM | 1.5 µM | 
7 | c1ccc(-c2nc(N3CCCCC3)c3oc4ncccc4c3n2)cc1 [NEU-0000291] |  |  |  |  | > 10 µM | > 10 µM | 12 µM | 
8 | Oc1cccc(-c2nc(N3CCOCC3)c3oc4ncccc4c3n2)c1 [PI-103] | 0.62 ± 0.41 µM | 0.214 ± 0.036 µM | 0.32 ± 0.16 µM | > 25 µM |  |  |  | EC50 [5]: 1.05 ± 0.28 µM; EC50 ([2]; read-out: activity against T. b. brucei cultures): 0.2 µM; effect on cell size and DNA content, L. major promastigotes [7]: G1 arrest and a decrease in cell size; EC50 ([8]; read-out: inhibition of Leishmania across both species and stages): 0.32 to 1.05 µM; EC50 [9, 14]: 0.105 ± 0.01 µM; EC50 ([9]; read-out: activity against T. b. rhodesiense cultures): 0.1 µM; effect on cellular DNA content / cell cycle, T. b. brucei [10]: G1 arrest; EC50 [12]: 0.5 µM
9 | CCOCCNc1nc(-c2ccccc2)nc2c1oc1ncccc12 [NEU-0000292] |  |  |  |  | 12.5 µM | 4 µM | > 50 µM | 
10 | Oc1ccccc1-c1nc(N2CCOCC2)c2cnn(C3CCN(Cc4ccccc4)CC3)c2n1 [NEU-00000231] |  |  |  |  | 3.02 µM | 2.78 µM |  | IC50 [5]: 8.01 µM; IC50 [9]: 2.23 µM
11 | COc1cccc(-c2nc(N3CCOCC3)c3oc4ncccc4c3n2)c1 [NEU-0000288] |  |  |  |  | ~20 µM | 4.07 µM | 3.7 µM | 
